Measured values from ChEMBL document CHEMBL1687746, “Impact of sarA on daptomycin susceptibility of Staphylococcus aureus biofilms in vivo” (2009).
In brackets after ≈: the same amount, converted by molar mass. Activity calls are given as the source filed them. The calls are words filed in the database; no cut-off is given here.

Assays:
Staphylococcus aureus [1] = test: Antimicrobial activity against Staphylococcus aureus UAMS-1 assessed as bacterial load in catheter at 20 times MIC; assay type: functional
Staphylococcus aureus [2] = test: Antimicrobial activity against Staphylococcus aureus UAMS-1 assessed as reduction in bacterial load in catheter at >/= 10 ug/ml for 3 days; assay type: functional, organism-based
Staphylococcus aureus [3] = test: Antimicrobial activity against Staphylococcus aureus UAMS-1625 by Etest method; assay type: functional
Staphylococcus aureus [4] = test: Antimicrobial activity against Staphylococcus aureus UAMS-1625 reduction in bacterial load in catheter at 20 ug/ml for 3 days; assay type: functional, organism-based
Staphylococcus aureus [5] = test: Antimicrobial activity against Staphylococcus aureus UAMS-1 sarA mutant by Etest method
Staphylococcus aureus [6] = test: Antimicrobial activity against Staphylococcus aureus UAMS-1653 assessed as bacterial load in catheter at 10 times MIC; assay type: functional
Staphylococcus aureus [7] = test: Antimicrobial activity against Staphylococcus aureus UAMS-929 assessed as bacterial load in catheter at 20 times MIC; assay type: functional
Staphylococcus aureus [8] = test: Antimicrobial activity against Staphylococcus aureus UAMS-1625 sarA mutant by Etest method; assay type: functional
Staphylococcus aureus [9] = test: Antimicrobial activity against Staphylococcus aureus UAMS-1 by Etest method
Staphylococcus aureus [10] = test: Antimicrobial activity against Staphylococcus aureus UAMS-1625 assessed as bacterial load in catheter at 10 times MIC; assay type: functional
Staphylococcus aureus [11] = test: Antimicrobial activity against Staphylococcus aureus UAMS-1 assessed as reduction in bacterial load in catheter at 20 ug/ml for 3 days; assay type: functional, organism-based

CCCCCCCCCC(=O)N[C@@H](Cc1c[nH]c2ccccc12)C(=O)N[C@H](CC(N)=O)C(=O)N[C@@H](CC(=O)O)C(=O)N[C@@H]1C(=O)NCC(=O)N[C@@H](CCCN)C(=O)N[C@@H](CC(=O)O)C(=O)N[C@H](C)C(=O)N[C@@H](CC(=O)O)C(=O)NCC(=O)N[C@H](CO)C(=O)N[C@@H]([C@H](C)CC(=O)O)C(=O)N[C@@H](CC(=O)c2ccccc2N)C(=O)O[C@@H]1C
Activity (Staphylococcus aureus [1]): 6.7% | Activity (Staphylococcus aureus [2]): Active | MIC (Staphylococcus aureus [3]): 0.38 µg/mL (≈ 0.234 µM) | Activity (Staphylococcus aureus [4]): Active | MIC (Staphylococcus aureus [5]): 0.5 µg/mL (≈ 0.309 µM) | Activity (Staphylococcus aureus [6]): 69% | Activity (Staphylococcus aureus [7]): 46.4% | MIC (Staphylococcus aureus [8]): 0.38 µg/mL (≈ 0.234 µM) | MIC (Staphylococcus aureus [9]): 0.5 µg/mL (≈ 0.309 µM) | Activity (Staphylococcus aureus [10]): 6.3% | Activity (Staphylococcus aureus [11]): inactive
